Data on 27 compounds can be found in patent US11098027B2, “Therapeutic heterocyclic compounds” (Gilead Sciences, Inc., priority 2018, dated 2021).

Each structure is given as a SMILES string.

T1 sequence (P14902 whole entry): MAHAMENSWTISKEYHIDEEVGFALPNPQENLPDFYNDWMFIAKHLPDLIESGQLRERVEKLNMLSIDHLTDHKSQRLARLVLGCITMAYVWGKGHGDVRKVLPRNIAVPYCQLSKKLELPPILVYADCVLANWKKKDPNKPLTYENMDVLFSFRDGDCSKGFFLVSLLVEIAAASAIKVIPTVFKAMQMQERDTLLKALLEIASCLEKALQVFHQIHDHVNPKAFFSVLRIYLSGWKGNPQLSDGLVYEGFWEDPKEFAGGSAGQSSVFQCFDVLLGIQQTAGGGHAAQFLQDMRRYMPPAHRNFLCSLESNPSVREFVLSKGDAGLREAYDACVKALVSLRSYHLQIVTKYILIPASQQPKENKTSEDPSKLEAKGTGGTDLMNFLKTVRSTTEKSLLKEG

This assay has as its target T1, IDO1 (Homo sapiens, UniProt P14902).
T1 construct: HeLa cells were treated with a test compound in the presence of IFNγ, which induces IDO1 expression; host or cells: H1-HeLa cells, IDO1 induced with IFNγ
As to the kind of experiment: Cell-based (HeLa) assay for measurement of IDO1 inhibition (kynurenine levels in supernatant). The conditions noted are these: H1-HeLa cells, IDO1 induced with IFNγ, 48 hour incubation, kynurenine read by absorbance at 480 nm; geometric mean of a minimum of four determinations. On the procedure: Example B-1. Cell-Based (HeLa) Assay for Measurement of IDO1 Inhibition
To measure IDO1 inhibition in tissue culture, HeLa cells were treated with a test compound in the presence of IFNγ, which induces IDO1 expression. Following incubation, cell supernatants were assayed for kynurenine levels, an indicator of IDO1 activity.
The following day, the test compounds were added in DMSO (0.5% final) at various concentrations, and IDO1 was inducibly expressed by the addition of 50 uL/well of 50 ng/mL of INFγ (Peprotech #300-02) in cell plating media. As a positive control, 50 uL of the cell plating media without IFNγ was added to several wells. Following a 48 hour incubation, the plates were spun down at 1,200 RPM for 5 min at 10° C. 65 μL/well of the supernatant was then transferred to new 384-well plates (Thermo #262160) that contained 10 uL/well of 30% TCA (Sigma # TO699), and the plates were sealed and incubated at 60° C. for 30 min. The plates were then centrifuged for 15 min at 2,000 RPM at 10° C. 40 μL/well of the supernatant was transferred to new 384-well plates (Thermo #262160) and was reacted with 40 μL/well of 2% (w/v) p-dimethlyaminobenzaldehyde (Sigma #156417) in glacial acetic acid (Sigma #A6283). The reaction was incubated at room temperature for 10 min and absorbance at 480 nm was read using a PerkinElmer Envision plate reader.
Data in Table 1 were normalized based on positive (−IFNγ) and negative (+IFNγ) controls and EC50 values were calculated from the fit of the dose—response curves to a four-parameter equation. All EC50 values represent geometric mean values of a minimum of four determinations. These assays generally produced results within 2-fold of the reported mean
A word on the EC50: it is the concentration at which the effect is half-maximal. With `O=C(Nc1ccc(F)cc1)c1cc(-c2cccc3c2C2(CCC2)C(=O)N3c2ncccn2)ccc1C(F)(F)F` [Example 33, N-(4-fluorophenyl)-5-(2′-oxo-1′-(pyrimidin-2-yl)spiro[cyclobutane-1,3′-indolin]-4′-yl)-2-(trifluoromethyl)benzamide], the EC50 is 92 nM.
In turn, `CC1(C)C(=O)N(c2cccnc2)c2cccc(-c3cnc(C(F)(F)F)c(C(=O)Nc4ccc(F)cc4)c3)c21` [Example 36, 5-(3,3-dimethyl-2-oxo-1-(pyridin-3-yl)indolin-4-yl)-N-(4-fluorophenyl)-2-(trifluoromethyl)nicotinamide] displayed an EC50 of 26 nM.
In the case of `CC1(C)C(=O)N(c2ccccn2)c2nccc(-c3ccc(C(F)(F)F)c(C(=O)Nc4ccc(F)cc4)c3)c21` [Example 17, 5-(3,3-dimethyl-2-oxo-1-(pyridin-2-yl)-2,3-dihydro-1H-pyrrolo[2,3-b]pyridin-4-yl)-N-(4-fluorophenyl)-2-(trifluoromethyl)benzamide], the concentration for a half-maximal effect (EC50) was 13 nM.
`CC1(C)C(=O)N(c2ccccn2)c2nccc(-c3ccc(C(F)(F)F)c(C(=O)Nc4ccc(F)c(F)c4)c3)c21` [Example 27, N-(3,4-difluorophenyl)-5-(3,3-dimethyl-2-oxo-1-(pyridin-2-yl)-2,3-dihydro-1H-pyrrolo[2,3-b]pyridin-4-yl)-2-(trifluoromethyl)benzamide] displayed a half-maximal effective concentration (EC50) of 63 nM.
Next, `CC1(C)C(=O)N(c2cncc(F)c2)c2cccc(-c3cnc(C(F)(F)F)c(C(=O)Nc4ccc(F)cc4)c3)c21` [Example 20, N-(4-fluorophenyl)-5-(1-(5-fluoropyridin-3-yl)-3,3-dimethyl-2-oxoindolin-4-yl)-2-(trifluoromethyl)nicotinamide]: 36 nM.
With `CC1(C)C(=O)N(c2ncccn2)c2cccc(-c3ccc(C(F)(F)F)c(C(=O)Nc4ccc(F)c(F)c4)c3)c21` [Example 30, N-(3,4-difluorophenyl)-5-(3,3-dimethyl-2-oxo-1-(pyrimidin-2-yl)indolin-4-yl)-2-(trifluoromethyl)benzamide], the EC50 was 24 nM.
With `CC1(C)C(=O)N(c2ccccn2)c2cccc(-c3ccc(C(F)(F)F)c(C(=O)Nc4ccc(F)cc4)c3)c21` [Example 2, 5-(3,3-dimethyl-2-oxo-1-(pyridin-2-yl)indolin-4-yl)-N-(4-fluorophenyl)-2-(trifluoromethyl)benzamide] the figure was 11 nM.
In turn, `CC1(C)C(=O)N(c2ncccn2)c2cccc(-c3ccc(OC(F)(F)F)c(C(=O)Nc4ccc(F)cc4)c3)c21` [Example 24, 5-(3,3-dimethyl-2-oxo-1-(pyrimidin-2-yl)indolin-4-yl)-N-(4-fluorophenyl)-2-(trifluoromethoxy)benzamide] came in with a concentration for a half-maximal effect (EC50) of 48 nM.
With `CC1(C)C(=O)N(c2ncccn2)c2cccc(-c3ccc(C(F)(F)F)c(C(=O)Nc4cncnc4)c3)c21` [Example 47, 5-(3,3-dimethyl-2-oxo-1-(pyrimidin-2-yl)indolin-4-yl)-N-(pyrimidin-5-yl)-2-(trifluoromethyl)benzamide] the figure was 810 nM; with `Cc1ccc(-c2cccc3c2C(C)(C)C(=O)N3c2ncccn2)c(F)c1C(=O)Nc1ccc(F)cc1` [Example 45, 3-(3,3-dimethyl-2-oxo-1-(pyrimidin-2-yl)indolin-4-yl)-2-fluoro-N-(4-fluorophenyl)-6-methylbenzamide], 32 nM; with `Cc1ccc(-c2cccc3c2oc(=O)n3-c2cccc(F)c2F)cc1C(=O)Nc1ccc(F)cc1` [Example 39, 5-(3-(2,3-difluorophenyl)-2-oxo-2,3-dihydrobenzo[d]oxazol-7-yl)-N-(4-fluorophenyl)-2-methylbenzamide], 47 nM.
Next, `CC1(C)C(=O)N(c2cccnc2)c2nccc(-c3ccc(C(F)(F)F)c(C(=O)Nc4ccc(F)c(F)c4)c3)c21` [Example 32, N-(3,4-difluorophenyl)-5-(3,3-dimethyl-2-oxo-1-(pyridin-3-yl)-2,3-dihydro-1H-pyrrolo[2,3-b]pyridin-4-yl)-2-(trifluoromethyl)benzamide]: 57 nM; `CC1(C)C(=O)N(c2cccnc2)c2nccc(-c3ccc(C(F)(F)F)c(C(=O)Nc4ccccc4)c3)c21` [Example 42, 5-(3,3-dimethyl-2-oxo-1-(pyridin-3-yl)-2,3-dihydro-1H-pyrrolo[2,3-b]pyridin-4-yl)-N-phenyl-2-(trifluoromethyl)benzamide]: 37 nM.
Turning to `CC1(C)C(=O)N(Cc2ncccn2)c2cccc(-c3ccc(C(F)(F)F)c(C(=O)Nc4ccc(F)cc4)c3)c21` [Example 16, 5-(3,3-dimethyl-2-oxo-1-(pyrimidin-2-ylmethyl)indolin-4-yl)-N-(4-fluorophenyl)-2-(trifluoromethyl)benzamide], the 50% effective concentration (EC50) turned out to be 810 nM.
Turning to `Cc1ccc(-c2cccc3c2C(C)(C)C(=O)N3c2ccccn2)cc1C(=O)Nc1ccc(F)cc1` [Example 10, 5-(3,3-dimethyl-2-oxo-1-(pyridin-2-yl)indolin-4-yl)-N-(4-fluorophenyl)-2-methylbenzamide], the response was half-maximal at 34 nM (EC50).
`CC1(C)C(=O)N(c2ncccn2)c2cccc(-c3ccc(C(F)(F)F)c(C(=O)Nc4ccccc4)c3)c21` [Example 37, 5-(3,3-dimethyl-2-oxo-1-(pyrimidin-2-yl)indolin-4-yl)-N-phenyl-2-(trifluoromethyl)benzamide] returned an EC50 of 28 nM.
For `CC1(C)C(=O)N(c2c[nH]cn2)c2cccc(-c3ccc(C(F)(F)F)c(C(=O)Nc4ccc(F)cc4)c3)c21` [Example 11, 5-(1-(1H-imidazol-4-yl)-3,3-dimethyl-2-oxoindolin-4-yl)-N-(4-fluorophenyl)-2-(trifluoromethyl)benzamide], a half-maximal effect (EC50) was put at 41 nM.
On to `CC1(C)C(=O)N(c2ncccn2)c2nccc(-c3ccc(C(F)(F)F)c(C(=O)Nc4ccc(F)c(F)c4)c3)c21` [Example 50, N-(3,4-difluorophenyl)-5-(3,3-dimethyl-2-oxo-1-(pyrimidin-2-yl)-2,3-dihydro-1H-pyrrolo[2,3-b]pyridin-4-yl)-2-(trifluoromethyl)benzamide], for which the EC50 stood at 50 nM.
For `O=C(Nc1ccc(F)cc1)c1cc(-c2cccc3c2[nH]c(=O)n3-c2ncccn2)ccc1C(F)(F)F` [Example 29, N-(4-fluorophenyl)-5-(2-oxo-1-(pyrimidin-2-yl)-2,3-dihydro-1H-benzo[d]imidazol-4-yl)-2-(trifluoromethyl)benzamide], the midpoint of the response, the EC50, lay at 179 nM.
The compound `CC1(C)C(=O)N(c2ncc[nH]2)c2cccc(-c3ccc(C(F)(F)F)c(C(=O)Nc4ccc(F)cc4)c3)c21` [Example 40, 5-(1-(1H-imidazol-2-yl)-3,3-dimethyl-2-oxoindolin-4-yl)-N-(4-fluorophenyl)-2-(trifluoromethyl)benzamide] gave an EC50 of 31 nM.
Next, `CC1(C)C(=O)N(c2ncccn2)c2cccc(-c3cc(C(=O)Nc4ccc(F)cc4)c(C(F)(F)F)cn3)c21` [Example 25, 2-(3,3-dimethyl-2-oxo-1-(pyrimidin-2-yl)indolin-4-yl)-N-(4-fluorophenyl)-5-(trifluoromethyl)isonicotinamide]: 39 nM.
With `CC1(C)C(=O)N(c2ccccn2)c2nccc(-c3ccc(C(F)(F)F)c(C(=O)Nc4ccc(F)cn4)c3)c21` [Example 28, 5-(3,3-dimethyl-2-oxo-1-(pyridin-2-yl)-2,3-dihydro-1H-pyrrolo[2,3-b]pyridin-4-yl)-N-(5-fluoropyridin-2-yl)-2-(trifluoromethyl)benzamide] the figure was 36 nM; with `CC1(C)C(=O)N(c2ccccn2)c2nccc(-c3cnc(C(F)(F)F)c(C(=O)Nc4ccc(F)c(F)c4)c3)c21` [Example 43, N-(3,4-difluorophenyl)-5-(3,3-dimethyl-2-oxo-1-(pyridin-2-yl)-2,3-dihydro-1H-pyrrolo[2,3-b]pyridin-4-yl)-2-(trifluoromethyl)nicotinamide], 103 nM.
The compound `Cc1ccc(-c2cccc3c2oc(=O)n3-c2cccnc2)cc1C(=O)Nc1ccc(F)cc1` [Example 34, N-(4-fluorophenyl)-2-methyl-5-(2-oxo-3-(pyridin-3-yl)-2,3-dihydrobenzo[d]oxazol-7-yl)benzamide] came in with an EC50 of 19 nM.
For the compound `Cc1ccc(-c2cccc3c2[nH]c(=O)n3-c2cccc(F)c2F)cc1C(=O)Nc1ccc(F)cc1` [Example 22, 5-(1-(2,3-difluorophenyl)-2-oxo-2,3-dihydro-1H-benzo[d]imidazol-4-yl)-N-(4-fluorophenyl)-2-methylbenzamide], the half-maximal effective concentration (EC50) was 62 nM.
Regarding `CC1(C)C(=O)N(c2ncccn2)c2cccc(-c3ccc(C(F)(F)F)c(C(=O)Nc4ccc(F)cc4)c3)c21` [Compound 1, 5-(3,3-dimethyl-2-oxo-1-(pyrimidin-2-yl)indolin-4-yl)-N-(4-fluorophenyl)-2-(trifluoromethyl)benzamide], the concentration for a half-maximal effect (EC50) was found to be 10 nM.
`CC1(C)C(=O)N(c2cccc(F)c2F)c2cccc(-c3ccc(C(F)(F)F)c(C(=O)Nc4ccc(F)cc4)c3)c21` [Example 38, 5-(1-(2,3-difluorophenyl)-3,3-dimethyl-2-oxoindolin-4-yl)-N-(4-fluorophenyl)-2-(trifluoromethyl)benzamide] displayed an EC50 of 55 nM.
